Assay type in all cases: in vivo, mouse
Test [1] relates to NOD mice. The test can be described thus: Treatment of initial stages of diabetes in hyperglycemic NOD mice (Example 5). The following applies: 0 to 1 mg, oral and aerosol, start at weeks 12-20 of age. The method, then:
Insulin (0 to 1 mg as in Examples 1 and 2) will be administered to NOD mice which are suffering from hyperglycemia in an oral and aerosol form. The treatments will begin by weeks 12-20 of age, by which the serum glucose levels are at hyperglycemic concentrations in a certain percentage of animals prior to onset of diabetes.

Test [2] concerns NOD mice. The test can be described thus: Glucose post oral insulin in fasting 7 week NOD mice. The settings on record: for blood glucose after feeding: measured over 24 hours. The method, then:
In order to determine whether any endocrinologic (i.e. direct lowering of blood sugar) effects occurred following the feeding of insulin, 7 week old NOD mice (5 mice per group) were fed 1 mg of porcine insulin or 1 mg of myelin basic protein (obtained from Pel Freez, Rogers, AR) as a control protein. Blood glucose was then measured over the next 24 hour period. As a positive control, a separate group of animals were injected subcutaneously with 20 micrograms of Porcine insulin. All animals were kept in the fasting state.

Test [3] has as its system NOD mice. The experiment in a line: Aerosol administration of insulin on diabetes in NOD mice (Example 4). The following applies: 0 to 1 mg in aerosol form by nebulizer. As to the method: Insulin (0 to 1 mg as in Examples 1 and 2) will be administered to NOD mice as described above in Examples 1 and 2 except in aerosol form by nebulizer.
Test [4] has as its system NOD mice. The experiment in a line: Insulitis in insulin-fed NOD mice (preliminary experiments, data not shown). The following applies: fed 1 mg, compared with PBS-fed NOD mice. From the text: Therefore, oral administration of insulin to NOD mice appeared to be affecting the infiltration of immune system cells into the pancreas and thus halting disease progression by preserving beta cell function.

The test system of test [5] is NOD mice. The test can be described thus: Spontaneous diabetes in NOD mice after oral feeding. An excerpt: NOD (non-obese diabetic mice) were obtained from Taconic Laboratories (Germantown, Mass.) at 4 weeks of age. There were a total of 30 animals in each of the groups mentioned below at the beginning of the experiment. At 41/2 weeks of age, animals were orally administered Porcine insulin (Novo Laboratories, Danbury, Conn.). Each animal received two treatments orally twice a week until 9 weeks of age. The mice were fed either saline (control) or 10 micrograms, 100 micrograms, or 1 milligram of Porcine insulin. The animals were fed (gavaged) with an 18 gauge ball-point needle (Popper and Sons, Inc., New Hyde Park, N.Y.). Beginning at 10 weeks the animals were then fed once a week for a total of 33 weeks. Beginning at 12 weeks the urine was tested weekly for the presence of glucose using Glucosuria test tape (Eli Lilly, Indianapolis, Ind.). If an animal tested 3+ or higher on the glucose urine test, a serum sample was taken and blood glucose measured using a glucose analyzer (Beckman). If the blood glucose was 220 or higher, the animals were classified as diabetic and then sacrificed. An identical experiment to Example 1 was performed in which NOD mice (14-17 per group) were fed one homogenized pancreas derived from Lewis rats in 0.5 mls PBS. […] Nonetheless, the effect is not as dramatic and complete as that seen in the animals fed insulin.

Where [6] appears, read: 20 micrograms injected subcutaneously, fasting 7 week old mice.
Setting [7] is: fed 1 mg orally, fasting 7 week old mice.

Several values for one entry are separate records, joined by “and”; a condition that tells them apart may be missing. Equal entries are not always repeated. Entries after “also recorded” stand apart in the source; their conditions may differ.

As to Porcine insulin, the beta cell function entry in the test with NOD mice [1] was “preservation of beta cell function”. Moreover, the serum glucose concentrations result in the test on NOD mice [1] is “reduction in serum glucose concentrations to near normal levels”. Further, the “decrease in blood glucose level” value with NOD mice [2] (setting [6]) is on record as “approximately 80 mg %”. Further, the “period over which the glucose decrease persisted” value in the test on NOD mice [2] (setting [6]) was determined as 4 h. Besides, the “endocrinologic (metabolic) effects” value with NOD mice [2] (fed 1 mg orally) was “no endocrinologic (metabolic) effects”. In the test with NOD mice [2] (setting [7]), the “blood glucose after feeding” value is given as “no drop in the blood glucose”. Moreover, the “prevention of the manifestation of symptoms (hyperglycemia) of Type 1 diabetes” value with NOD mice [3] was “effective in preventing the manifestation of symptoms”. For the same substance, the “inflammatory immune system cells surrounding the pancreas (insulitis)” value with NOD mice [4] was “fewer inflammatory immune system cells surrounding the pancreas”. For the same substance, the incidence of diabetes result in the test on NOD mice [5] (all oral doses tested (10 micrograms, 100 micrograms, 1 mg)) was “lower incidence of diabetes; also recorded: reduced the numbers of these mice which subsequently went on to develop diabetes”. The development of diabetes result in the test with NOD mice [5] (fed 1 mg orally (gavage), twice a week until 9 weeks of age, then once a week, diabetic = blood glucose 220 or higher) is listed as “none of the mice went on to develop diabetes; also recorded: no diabetes developed; also recorded: None of the animals developed diabetes”; with NOD mice [5] (fed 10 micrograms orally, same schedule), “diabetes developed”; in the test with NOD mice [5] (fed 100 micrograms orally, same schedule), “diabetes developed”. Moreover, the “blood sugar on 10 representative animals” value in the test on NOD mice [5] (fed 1 mg, individual non-diabetic animals) came to 130 mg/dL. In addition, the “blood sugar in animals which developed diabetes” value in the test with NOD mice [5] (fed 10 micrograms, individual animals) was 330 mg/dL and 420 mg/dL and 520 mg/dL. Further, in the test with NOD mice [5] (fed 100 micrograms, individual animals), the “blood sugar in animals that became diabetic” value is 500 mg/dL and 290 mg/dL and 600 mg/dL and 450 mg/dL. In the test with NOD mice [5] (highest oral dose (1 mg)), the “treated animals that failed to develop diabetes” value is 100%.

For myelin basic protein, the “blood glucose after feeding” value in the test with NOD mice [2] (setting [7]) is on record as “no drop in the blood glucose”.

Values taken from patent US5843886A, “Method of treating or preventing Type 1 diabetes by oral administration of insulin” (Autoimmune, Inc., priority 1995, dated 1998).
